Consider 30 molecules from patent US9963448B2, “Bicyclic inhibitors of PAD4” (Padlock Therapeutics, Inc., priority 2015, dated 2018).

Assay [1] deals with mPAD4 (Mus musculus, UniProt Q9Z183). Description: mPAD4 RFMS PAD4 inhibition assay.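 On mPAD4 RFMS pIC50: grade E means pIC50 at most 4 and F means pIC50 4.0 to 5.0.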 The following applies: mPAD4, RFMS readout. It is filed as biochemical. As to the method:
(§1) Compounds of the present invention were assayed as inhibitors of PAD4 using the assay protocol described below.
(§2) Compound stock solutions were stored at RT. […] Final assay conditions were as follows:
(§3) Total incubation time: 65 mins at 37° C.
(§4) Stop solution: 40 μl 5% TCA in ACN
(§5) The compound numbers correspond to the compound numbers in Table 1. […] The term pIC50=−log(IC50). […] “NA” stands for “not assayed.”

In assay [2] the target is hPAD4 (Homo sapiens, UniProt Q9UM07). Description: hPAD4 RFMS (RapidFire mass spectrometry) PAD4 inhibition assay.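 On hPAD4 RFMS pIC50: grade E means pIC50 at most 4 and F means pIC50 4.0 to 5.0.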 It is filed as biochemical. Particulars: hPAD4 enzyme, RFMS readout. As to the method:
as §1, §2, §3, §4, §5

The mark [3] stands for this setting: pIC50=−log(IC50), read-out: mPAD4 RFMS pIC50 (converted).
Where [4] appears, read: pIC50=−log(IC50), read-out: hPAD4 RFMS pIC50 (converted).

Counter-ions that a name gives are not always drawn. Like-named read-outs stand apart in the source and are kept apart here.

hPAD4, sequence (Q9UM07 whole entry): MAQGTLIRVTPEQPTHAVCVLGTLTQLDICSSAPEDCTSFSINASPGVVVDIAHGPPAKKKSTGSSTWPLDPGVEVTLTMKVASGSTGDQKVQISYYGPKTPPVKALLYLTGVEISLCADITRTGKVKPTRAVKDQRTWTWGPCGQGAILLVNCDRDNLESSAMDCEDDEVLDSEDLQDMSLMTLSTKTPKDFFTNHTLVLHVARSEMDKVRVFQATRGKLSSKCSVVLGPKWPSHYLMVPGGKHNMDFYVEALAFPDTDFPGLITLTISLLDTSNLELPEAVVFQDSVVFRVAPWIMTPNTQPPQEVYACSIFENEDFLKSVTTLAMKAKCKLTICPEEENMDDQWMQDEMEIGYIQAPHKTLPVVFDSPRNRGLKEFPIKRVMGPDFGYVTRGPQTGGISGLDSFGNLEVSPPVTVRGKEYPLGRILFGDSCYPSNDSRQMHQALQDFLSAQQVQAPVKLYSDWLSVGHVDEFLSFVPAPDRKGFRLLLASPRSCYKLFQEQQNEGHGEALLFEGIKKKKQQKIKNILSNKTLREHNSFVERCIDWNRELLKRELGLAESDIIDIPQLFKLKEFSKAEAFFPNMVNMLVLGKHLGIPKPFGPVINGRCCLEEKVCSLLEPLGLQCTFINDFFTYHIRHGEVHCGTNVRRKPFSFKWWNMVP
mPAD4, sequence (Q9Z183 whole entry): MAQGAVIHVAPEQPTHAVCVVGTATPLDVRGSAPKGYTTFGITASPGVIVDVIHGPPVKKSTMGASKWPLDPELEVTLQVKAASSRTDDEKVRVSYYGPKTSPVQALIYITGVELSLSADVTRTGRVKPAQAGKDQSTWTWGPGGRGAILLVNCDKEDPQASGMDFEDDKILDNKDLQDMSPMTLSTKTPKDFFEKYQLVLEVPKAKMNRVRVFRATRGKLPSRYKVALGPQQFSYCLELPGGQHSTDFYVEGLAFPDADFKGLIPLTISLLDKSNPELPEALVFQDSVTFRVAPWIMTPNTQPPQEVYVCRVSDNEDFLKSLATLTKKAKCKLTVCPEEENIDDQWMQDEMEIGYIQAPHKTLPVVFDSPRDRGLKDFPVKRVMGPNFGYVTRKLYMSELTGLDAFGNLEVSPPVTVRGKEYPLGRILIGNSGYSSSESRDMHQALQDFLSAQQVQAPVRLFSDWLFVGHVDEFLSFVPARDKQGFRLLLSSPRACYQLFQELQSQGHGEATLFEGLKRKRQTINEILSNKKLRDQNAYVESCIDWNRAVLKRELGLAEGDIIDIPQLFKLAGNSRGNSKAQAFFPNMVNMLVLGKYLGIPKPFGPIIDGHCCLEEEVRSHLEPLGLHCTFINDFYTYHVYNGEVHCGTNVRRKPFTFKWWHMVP

As for `COC1CCN(C(=O)c2ccc3c(c2)nc(-c2cc4cccnc4n2CC2CC2)n3C)CC1N` (racemic) [Compound I-62, 1-{2-[1-(cyclopropylmethyl)-1H-pyrrolo[2,3-b]pyridin-2-yl]-1-methyl-1H-1,3-benzodiazole-5-carbonyl}-4-methoxypiperidin-3-amine], the IC50 is 1 to 10 µM in assay [1] (setting [3]), 5 to 10 µM in assay [1] (read-out: mPAD4 RFMS IC50), 1 to 10 µM in assay [2] (setting [4]) and 1 to 5 µM in assay [2] (read-out: hPAD4 RFMS IC50).

With `COc1cc(C(=O)N2CC(O)(C3CCCCN3)C2)cc2nc(-c3cc4cccnc4n3CC3CC3)n(C)c12` (racemic) [Compound I-74], the IC50 in assay [1] (setting [3]) was 10 to 100 µM; in assay [1] (read-out: mPAD4 RFMS IC50), above 10 µM; in assay [2] (setting [4]), 10 to 100 µM; in assay [2] (read-out: hPAD4 RFMS IC50), above 10 µM.

On to `COc1cc(C(=O)N2CCC(F)C(N)C2)cc2nc(-c3cc4cccnc4n3CC3CC3)n(C)c12` (racemic) [Compound I-75, 1-{2-[1-(Cyclopropylmethyl)-1H-pyrrolo[2,3-b]pyridin-2-yl]-7-methoxy-1-methyl-1H-1,3-benzodiazole-5-carbonyl}-4-fluoropiperidin-3-amine], for which the IC50 was 1 to 10 µM in assay [1] (setting [3]), 1 to 5 µM in assay [1] (read-out: mPAD4 RFMS IC50), 1 to 10 µM in assay [2] (setting [4]) and 1 to 5 µM in assay [2] (read-out: hPAD4 RFMS IC50).

For the molecule `CN[C@@H]1C[C@@H](O)CN(C(=O)c2cc(OC)c3c(c2)nc(-c2cc4cccnc4n2CC2CC2)n3C)C1` (racemic) [Compound I-77, Rel-(3R,5R)-1-{2-[1-(cyclopropylmethyl)-1H-pyrrolo[2,3-b]pyridin-2-yl]-7-methoxy-1-methyl-1H-1,3-benzodiazole-5-carbonyl}-5-(methylamino)piperidin-3-ol hydrochloride], the IC50 in assay [1] (setting [3]) is 10 to 100 µM; in assay [1] (read-out: mPAD4 RFMS IC50) it was above 10 µM; in assay [2] (setting [4]), 10 to 100 µM; in assay [2] (read-out: hPAD4 RFMS IC50), above 10 µM.

For `COc1cc(C(=O)N2C[C@@H](N)C[C@H](O)C2)cc2nc(-c3cc4cccnc4n3CC3CC3)n(C)c12` (racemic) [Compound I-80], the IC50 in assay [1] (setting [3]) was 1 to 10 µM; in assay [1] (read-out: mPAD4 RFMS IC50), 1 to 5 µM; in assay [2] (setting [4]), 1 to 10 µM; in assay [2] (read-out: hPAD4 RFMS IC50) it was 5 to 10 µM.

As for `COc1cc(C(=O)N2CC(N)CC(C#N)C2)cc2nc(-c3cc4cccnc4n3CC3CC3)n(C)c12` (racemic) [Compound I-82, 5-Amino-1-{2-[1-(cyclopropylmethyl)-1H-pyrrolo[2,3-b]pyridin-2-yl]-7-methoxy-1-methyl-1H-1,3-benzodiazole-5-carbonyl}piperidine-3-carbonitrile], the IC50 was 10 to 100 µM in assay [1] (setting [3]), above 10 µM in assay [1] (read-out: mPAD4 RFMS IC50), 10 to 100 µM in assay [2] (setting [4]) and above 10 µM in assay [2] (read-out: hPAD4 RFMS IC50).

For the molecule `COc1cc(C(=O)N2CCC3OCCNC3C2)cc2nc(-c3cc4cccnc4n3CC3CC3)n(C)c12` (racemic) [Compound I-83], the IC50 in assay [1] (setting [3]) was 1 to 10 µM; in assay [1] (read-out: mPAD4 RFMS IC50) it was 1 to 5 µM; in assay [2] (setting [4]) it was 1 to 10 µM; in assay [2] (read-out: hPAD4 RFMS IC50), 1 to 5 µM.

On to `COc1cc(C(=O)N2CCC(OC(F)F)C(N)C2)cc2nc(-c3cc4cccnc4n3CC3CC3)n(C)c12` (racemic) [Compound I-86, rac-(3R,4S)-1-{2-[1-(cyclopropylmethyl)-1H-pyrrolo[2,3-b]pyridin-2-yl]-7-methoxy-1-methyl-1H-1,3-benzodiazole-5-carbonyl}-4-(difluoromethoxy)piperidin-3-amine], for which the IC50 in assay [1] (setting [3]), in assay [1] (read-out: mPAD4 RFMS IC50), in assay [2] (setting [4]) and in assay [2] (read-out: hPAD4 RFMS IC50) was below 1 µM in each case.

In the case of `COc1cc(C(=O)N2CC3COCC3(CN)C2)cc2nc(-c3cc4cccnc4n3CC3CC3)n(C)c12` (racemic) [Compound I-96], the IC50 in assay [1] (setting [3]) was 10 to 100 µM; in assay [1] (read-out: mPAD4 RFMS IC50) it was above 10 µM; in assay [2] (setting [4]), 10 to 100 µM; in assay [2] (read-out: hPAD4 RFMS IC50), above 10 µM.

With `COc1ccc2cc(-c3nc4cc(C(=O)N5C[C@H](N)CC[C@@H]5C)cc(OC)c4n3C)n(CC3CC3)c2n1` [Compound I-355, ((2S,5R)-5-amino-2-methylpiperidin-1-yl)(2-(1-(cyclopropylmethyl)-6-methoxy-1H-pyrrolo[2,3-b]pyridin-2-yl)-7-methoxy-1-methyl-1H-benzo[d]imidazol-5-yl)methanone], the IC50 in assay [2] (setting [4]) and in assay [2] (read-out: hPAD4 RFMS IC50) was below 1 µM in each case.

In the case of `COc1ccc2cc(-c3nc4cc(C(=O)N5C[C@@H](N)C[C@H](F)C5)cc(OC)c4n3C)n(CC3CC3)c2n1` [Compound I-356, ((3S,5S)-3-amino-5-fluoropiperidin-1-yl)(2-(1-(cyclopropylmethyl)-6-methoxy-1H-pyrrolo[2,3-b]pyridin-2-yl)-7-methoxy-1-methyl-1H-benzo[d]imidazol-5-yl)methanone], the IC50 in assay [2] (setting [4]) and in assay [2] (read-out: hPAD4 RFMS IC50) was below 1 µM throughout.

`COc1cc(C(=O)N2C[C@H]3CCC2[C@H]3N)cc2nc(-c3cc4cc(/C=C/C5CC5)ccc4n3CC3CC3)n(C)c12` [Compound I-357]: the IC50 in assay [2] (setting [4]) and in assay [2] (read-out: hPAD4 RFMS IC50) was below 1 µM each time.

In the case of `COc1cc(C(=O)N2C[C@H]3CCC2[C@H]3N)cc2nc(-c3cc4cc(/C=C/CC(C)C)ccc4n3CC3CC3)n(C)c12` [Compound I-358], the IC50 in assay [2] (setting [4]) and in assay [2] (read-out: hPAD4 RFMS IC50) was below 1 µM in each case.

Turning to `COc1cc(C(=O)N2C[C@H]3CCC2[C@H]3N)cc2nc(-c3cc4cc(/C=C/c5ccccc5)ccc4n3CC3CC3)n(C)c12` [Compound I-359], the IC50 in assay [2] (setting [4]) and in assay [2] (read-out: hPAD4 RFMS IC50) was below 1 µM throughout.

In the case of `COc1cc(C(=O)N2C[C@H]3CCC2[C@H]3N)cc2nc(-c3cc4cc(/C=C/CCc5ccccc5)ccc4n3CC3CC3)n(C)c12` [Compound I-360], the IC50 in assay [2] (setting [4]) and in assay [2] (read-out: hPAD4 RFMS IC50) was below 1 µM in each case.

As to `COc1cc(C(=O)N2C[C@H]3CC[C@H]2[C@H]3N)cc2nc(-c3cc4cc(/C=C/c5ccc(C(F)(F)F)cc5)ccc4n3CC3CC3)n(C)c12` [Compound I-361, ((1S,4R)-7-amino-2-azabicyclo[2.2.1]heptan-2-yl)(2-(1-(cyclopropylmethyl)-5-((E)-4-(trifluoromethyl)styryl)-1H-indol-2-yl)-7-methoxy-1-methyl-1H-benzo[d]imidazol-5-yl)methanone], the IC50 in assay [2] (setting [4]) and in assay [2] (read-out: hPAD4 RFMS IC50) was below 1 µM in each case.

Regarding `COc1cc(C(=O)N2C[C@H]3CC[C@@H]2[C@@H]3N)cc2nc(-c3cc4cc(C5=Cc6ccccc6C5)ccc4n3CC3CC3)n(C)c12` [Compound I-362], the IC50 in assay [2] (setting [4]) and in assay [2] (read-out: hPAD4 RFMS IC50) was below 1 µM in each case.

In the case of `COc1cc(C(=O)N2C[C@H]3CCC2[C@H]3N)cc2nc(-c3cc4ccc(/C=C/C5CC5)cc4n3CC3CC3)n(C)c12` [Compound I-363], the IC50 in assay [2] (setting [4]) and in assay [2] (read-out: hPAD4 RFMS IC50) was below 1 µM throughout.

With `COc1cc(C(=O)N2C[C@H]3CCC2[C@H]3N)cc2nc(-c3cc4ccc(/C=C/CC(C)C)cc4n3CC3CC3)n(C)c12` [Compound I-364], the IC50 in assay [2] (setting [4]) and in assay [2] (read-out: hPAD4 RFMS IC50) was below 1 µM in each case.

As for `COc1cc(C(=O)N2C[C@H]3CCC2[C@H]3N)cc2nc(-c3cc4ccc(/C=C/c5ccccc5)cc4n3CC3CC3)n(C)c12` [Compound I-365], the IC50 in assay [2] (setting [4]) and in assay [2] (read-out: hPAD4 RFMS IC50) was below 1 µM in each case.

On to `COc1cc(C(=O)N2C[C@H]3CCC2[C@H]3N)cc2nc(-c3cc4ccc(/C=C/Cc5ccccc5)cc4n3CC3CC3)n(C)c12` [Compound I-366], for which the IC50 in assay [2] (setting [4]) and in assay [2] (read-out: hPAD4 RFMS IC50) was below 1 µM each time.

Regarding `COc1cc(C(=O)N2C[C@H]3CCC2[C@H]3N)cc2nc(-c3cc4ccc(/C=C/c5ccc(C(F)(F)F)cc5)cc4n3CC3CC3)n(C)c12` [Compound I-367], the IC50 in assay [2] (setting [4]) and in assay [2] (read-out: hPAD4 RFMS IC50) was below 1 µM each time.

Regarding `COc1cc(C(=O)N2C[C@H]3CCC2[C@H]3N)cc2nc(-c3cc4ccc(C5=Cc6ccccc6C5)cc4n3CC3CC3)n(C)c12` [Compound I-368], the IC50 in assay [2] (setting [4]) and in assay [2] (read-out: hPAD4 RFMS IC50) was below 1 µM each time.

With `COc1cc(C(=O)N2C[C@H]3CCC2[C@H]3N)cc2nc(-c3cc4ccc(/C=C/CCc5ccccc5)cc4n3CC3CC3)n(C)c12` [Compound I-369], the IC50 in assay [2] (setting [4]) and in assay [2] (read-out: hPAD4 RFMS IC50) was below 1 µM throughout.

For `COc1cc(C(=O)N2C[C@H]3CC[C@@H]2[C@@H]3N)cc2nc(-c3cc4ccc(C#N)cc4n3CC3CC3)n(C)c12` [Compound I-371], the IC50 in assay [2] (setting [4]) and in assay [2] (read-out: hPAD4 RFMS IC50) was below 1 µM throughout.

Consider `COc1cc(C(=O)N2C[C@H]3CC[C@@H]2[C@@H]3N)cc2nc(-c3cc4cc(NCC5CC5)ccc4n3CC3CC3)n(C)c12` [Compound I-372], for which the “hPAD4 RFMS pIC50” value in assay [2] (pIC50=−log(IC50)) is “G/H”. The IC50 in assay [2] (read-out: hPAD4 RFMS IC50) was in the range of 1 to 5 µM.

On to `COc1cc(C(=O)N2C[C@H]3CCC2[C@H]3N)cc2nc(-c3cc4cc(N(C)CCC5CC5)ccc4n3CC3CC3)n(C)c12` [Compound I-373], for which the results for the IC50 in assay [2] (setting [4]) and in assay [2] (read-out: hPAD4 RFMS IC50) were 1 to 10 µM and 1 to 5 µM, respectively.

On to `COc1cc(C(=O)N2C[C@H]3CC[C@H]2[C@H]3N)cc2nc(-c3cc4cc(NCCC5CC5)ccc4n3CC3CC3)n(C)c12` [Compound I-374, ((1S,4R)-7-amino-2-azabicyclo[2.2.1]heptan-2-yl)(2-(5-((2-cyclopropylethyl)amino)-1-(cyclopropylmethyl)-1H-indol-2-yl)-7-methoxy-1-methyl-1H-benzo[d]imidazol-5-yl)methanone], for which the IC50 in assay [2] (setting [4]) and in assay [2] (read-out: hPAD4 RFMS IC50) was below 1 µM throughout.

Consider `COc1cc(C(=O)N2C[C@H]3CC[C@@H]2[C@@H]3N)cc2nc(-c3cc4ccc(NCCC5CC5)cc4n3CC3CC3)n(C)c12` [Compound I-375], for which the IC50 in assay [2] (setting [4]) and in assay [2] (read-out: hPAD4 RFMS IC50) was below 1 µM in each case.

For `COc1cc(C(=O)N2C[C@H]3CC[C@@H]2[C@@H]3N)cc2nc(-c3cc4ccc(N(C)CCC5CC5)cc4n3CC3CC3)n(C)c12` [Compound I-376], the IC50 in assay [2] (setting [4]) and in assay [2] (read-out: hPAD4 RFMS IC50) was below 1 µM throughout.
